According to ChEMBL document CHEMBL1155098, “Synthesis and binding studies of 2-O- and 11-O-substituted N-alkylnoraporphines” (Bioorg Med Chem Lett, 2008):

Legend:
Rattus norvegicus = organism: Rattus norvegicus; assay: Selectivity ratio of […] in rat corpus striatum; type: tissue-based
D(1A) dopamine receptor = D(1A) dopamine receptor (Rattus norvegicus, UniProt P18901); assay: Displacement of [3H]SCH23390 from dopamine D1 receptor in rat corpus striatum
D(2) dopamine receptor = D(2) dopamine receptor (Rattus norvegicus, UniProt P61169); assay: Displacement of [3H]neomonapride from dopamine D2 receptor in rat corpus striatum
Chain of D(2) dopamine receptor (P61169 whole entry): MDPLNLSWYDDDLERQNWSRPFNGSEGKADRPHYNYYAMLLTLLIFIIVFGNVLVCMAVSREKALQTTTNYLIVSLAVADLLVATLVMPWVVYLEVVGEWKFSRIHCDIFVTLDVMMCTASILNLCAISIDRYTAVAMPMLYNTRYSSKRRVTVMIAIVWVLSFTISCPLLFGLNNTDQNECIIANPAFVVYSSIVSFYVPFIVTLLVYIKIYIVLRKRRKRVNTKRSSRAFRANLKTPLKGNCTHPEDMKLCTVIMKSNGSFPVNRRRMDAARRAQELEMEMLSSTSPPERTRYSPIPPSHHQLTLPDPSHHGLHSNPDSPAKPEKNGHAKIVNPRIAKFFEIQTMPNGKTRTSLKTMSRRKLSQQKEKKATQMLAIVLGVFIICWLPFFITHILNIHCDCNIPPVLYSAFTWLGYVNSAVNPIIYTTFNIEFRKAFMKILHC

[1] = biological target: T1, 5-hydroxytryptamine receptor 1A (Rattus norvegicus, UniProt P19327); assay: Displacement of [3H]8-OH-DPAT from Serotonin 5-HT1A receptor in rat corpus striatum
T1 sequence (P19327 whole entry): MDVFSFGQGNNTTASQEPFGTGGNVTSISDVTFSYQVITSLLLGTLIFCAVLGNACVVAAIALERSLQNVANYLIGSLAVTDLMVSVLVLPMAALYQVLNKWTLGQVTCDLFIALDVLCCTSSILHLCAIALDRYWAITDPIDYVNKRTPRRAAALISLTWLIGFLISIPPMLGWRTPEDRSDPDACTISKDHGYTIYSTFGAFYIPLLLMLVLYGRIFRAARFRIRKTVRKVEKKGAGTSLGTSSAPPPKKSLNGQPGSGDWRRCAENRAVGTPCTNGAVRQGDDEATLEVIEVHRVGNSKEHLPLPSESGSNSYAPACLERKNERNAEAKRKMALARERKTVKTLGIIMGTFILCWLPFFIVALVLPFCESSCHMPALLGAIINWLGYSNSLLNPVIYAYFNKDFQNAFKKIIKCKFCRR

Chain of D(1A) dopamine receptor (P18901 whole entry): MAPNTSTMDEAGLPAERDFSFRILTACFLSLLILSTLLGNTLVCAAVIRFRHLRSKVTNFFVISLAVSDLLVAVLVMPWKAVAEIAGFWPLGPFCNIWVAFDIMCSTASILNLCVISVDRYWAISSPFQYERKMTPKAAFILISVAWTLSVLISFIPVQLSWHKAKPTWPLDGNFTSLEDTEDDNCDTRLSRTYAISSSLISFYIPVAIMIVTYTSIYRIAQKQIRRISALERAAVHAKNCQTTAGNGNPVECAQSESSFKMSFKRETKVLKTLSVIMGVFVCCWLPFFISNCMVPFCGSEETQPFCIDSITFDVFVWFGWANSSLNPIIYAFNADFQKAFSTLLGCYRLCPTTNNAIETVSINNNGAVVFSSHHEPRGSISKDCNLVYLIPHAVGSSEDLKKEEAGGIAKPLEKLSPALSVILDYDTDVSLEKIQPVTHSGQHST

Row | SMILES | Ratio (Rattus norvegicus) | Ki (D(1A) dopamine receptor) [µM] | Ki (D(2) dopamine receptor) [µM] | Ki [1] [µM]
1 | CCCN1CCc2cc(OCCO)cc3c2[C@H]1Cc1cccc(O)c1-3 | > 103 | > 10 | 0.097 | –
2 | CN1CCc2cc(O)cc3c2[C@H]1Cc1cccc(OCCO)c1-3 | 3 | > 10 | 3.34 | 0.289
3 | COc1cc2c3c(c1)-c1ccccc1C[C@H]3N(C)CC2 | 1.8 | 1.3 | 0.731 | 2.66
4 | CCOc1cccc2c1-c1cc(O)cc3c1[C@@H](C2)N(C)CC3 | 5.7 | 3.68 | 0.641 | 0.432
5 | CCCOc1cccc2c1-c1cc(O)cc3c1[C@@H](C2)N(C)CC3 | – | 1.81 | – | –
6 | CCCN1CCc2cc(OC)cc3c2[C@H]1Cc1ccccc1-3 | – | > 10 | – | 1.6
